From patent US11535597B2, “Photoreactive ligands and uses thereof” (The Scripps Research Institute, priority 2017, dated 2022)

Molecular target: T1, ZADH2 (Homo sapiens, UniProt Q8N4Q0)
T1 construct: endogenous in cells; host or cells: HEK293T
T1 sequence (Q8N4Q0 1-377): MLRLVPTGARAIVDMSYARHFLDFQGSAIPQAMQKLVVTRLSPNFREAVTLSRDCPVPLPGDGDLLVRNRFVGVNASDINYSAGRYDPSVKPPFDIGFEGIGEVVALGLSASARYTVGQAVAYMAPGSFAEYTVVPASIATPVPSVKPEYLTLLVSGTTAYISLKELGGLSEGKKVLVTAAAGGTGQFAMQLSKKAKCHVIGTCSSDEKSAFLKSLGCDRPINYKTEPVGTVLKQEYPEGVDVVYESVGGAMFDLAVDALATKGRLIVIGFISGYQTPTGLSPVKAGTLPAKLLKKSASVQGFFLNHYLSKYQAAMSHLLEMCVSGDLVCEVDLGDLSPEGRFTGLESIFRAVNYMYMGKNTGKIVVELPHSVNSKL
Experiment: MS-based (SILAC) competition of FFF probe 8 labeling of ZADH2 in HEK293T cells
Format: binding
Conditions: competition with FFF probe 8 (20 μM)
Method: For gel-based experiments, cells were grown in 6-well plates to ˜90% confluence at the time of treatment. Cells were carefully washed with Dulbecco's phosphate buffered saline (DPBS) and replenished with fresh serum-free media containing indicated FFF probe, and, if applicable, competitors or DMSO vehicle (1 mL). Following incubation at 37° C. for 30 min, cells were directly exposed to 365 nm light for 10 min. For no UV experiments, cells were incubated at 4° C. for 10 min under ambient light. For MS-based experiments, cell labeling was performed in a similar manner as described above. Modifications to this protocol included using isotopically ‘light’ and ‘heavy’ SILAC cells that were grown to near complete confluence prior to treatment in 10 cm plates. In probe-versus-control probe and probe-versus-probe experiments, isotopically light cells were treated with indicated fragment probe, while the heavy cells were treated with control probe (1), or additional FFF probe to be compared, at indicated concentrations. […]
Cells pellets were lysed in cold DPBS (100-500 µL) using a Branson Sonifier probe sonicator (10 pulses, 30% duty cycle, output setting=4). […] Protein concentration was determined using the DC Protein Assay (Bio-Rad) and absorbance read using a Tecan, Infinite F500 plate reader following manufacturer's instructions. […]

COc1ccccc1N1CCN(C(=O)Cc2ccccc2)CC1 [Compound 22, 1-(4-(2-Methoxyphenyl)piperazin-1-yl)-2-phenylethan-1-one]
cross-reactivity with ZADH2: did not cross-react
